Patent US20220323406A1, “METHODS AND COMPOSITIONS FOR DIFFERENTIATING STEM CELLS” (Massachusetts Institute of Technology, priority 2019, published 2022)
Where a name gives a salt, the structure may show the parent alone.

Legend:
[1] = test system: ENR+CD organoids (ISC to Paneth cell differentiation); experiment: Primary screen: basal (non-stimulated) lysozyme secretion LYZ.NS, 2.5-D 384-well ENR+CD organoid differentiation; type: cell-based, mouse; conditions: primary screen; for Z.LYZ.NS: standard z score; for Dose.FC.LYZ.NS: FC vs plate median
From the text: (§1) High-throughput screening.

[2] = test system: ENR+CD organoids (ISC to Paneth cell differentiation); experiment: Primary screen: CCh-stimulated lysozyme secretion LYZ.S, 2.5-D 384-well ENR+CD organoid differentiation; type: cell-based, mouse; conditions: primary screen, FC vs plate median
From the text: as §1

ENR+CD organoids = experiment: Primary screen: ATP (CellTiter-Glo 3D, CTG) cell number/viability, 2.5-D 384-well ENR+CD organoids; conditions: primary screen; for Z.CTG: standard z score; for Dose.FC.CTG: FC vs plate median;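 for all read-outs here: compounds given at plating and again on day 3 over a 6-day differentiation from ENR+CV stem-cell-enriched precursors, ATP measured on day 6, plate median as control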

Structure (SMILES) | Z.LYZ.NS ([1]; dose 0.08 uM) | Z.LYZ.NS ([1]; dose 0.40 uM) | Z.LYZ.NS ([1]; dose 2.00 uM) | Z.LYZ.NS ([1]; dose 10.00 uM) | Dose.FC.LYZ.NS ([1]; dose 0.08 uM) | Dose.FC.LYZ.NS ([1]; dose 0.40 uM) | Dose.FC.LYZ.NS ([1]; dose 2.00 uM) | Dose.FC.LYZ.NS ([1]; dose 10.00 uM) | Dose.FC.LYZ.S ([2]; dose 0.08 uM) | Dose.FC.LYZ.S ([2]; dose 0.40 uM) | Dose.FC.LYZ.S ([2]; dose 2.00 uM) | Dose.FC.LYZ.S ([2]; dose 10.00 uM) | Z.CTG (ENR+CD organoids; dose 0.08 uM) | Z.CTG (ENR+CD organoids; dose 0.40 uM) | Z.CTG (ENR+CD organoids; dose 2.00 uM) | Z.CTG (ENR+CD organoids; dose 10.00 uM) | Dose.FC.CTG (ENR+CD organoids; dose 0.08 uM) | Dose.FC.CTG (ENR+CD organoids; dose 0.40 uM) | Dose.FC.CTG (ENR+CD organoids; dose 2.00 uM) | Dose.FC.CTG (ENR+CD organoids; dose 10.00 uM)
CCc1c(C(=O)NCCc2ccc(N3CCCCC3)cc2)[nH]c2ccc(Cl)cc12 [Org 27569] | 1.060 | 0.445 | 0.683 | 0.248 | 0.122 log2 fold change | 0.051 log2 fold change | 0.078 log2 fold change | 0.029 log2 fold change | 0.174 log2 fold change | 0.032 log2 fold change | 0.059 log2 fold change | 0.001 log2 fold change | 0.663 | 0.173 | 0.865 | 0.646 | 0.278 log2 fold change | 0.072 log2 fold change | 0.362 log2 fold change | 0.270 log2 fold change
NC(=O)N1c2ccccc2CC(=O)c2ccccc21 [Oxcarbazepine] | 0.035 | −0.001 | 0.349 | −0.527 | 0.004 log2 fold change | 0.000 log2 fold change | 0.040 log2 fold change | −0.061 log2 fold change | 0.043 log2 fold change | 0.154 log2 fold change | 0.042 log2 fold change | −0.057 log2 fold change |  |  |  |  | −0.021 log2 fold change | −0.103 log2 fold change | −0.082 log2 fold change | −0.150 log2 fold change
Cc1cc(C(C)(C)C)c(O)c(C)c1CC1=NCCN1 [Oxymetazoline HCl] | 0.515 | 0.134 | 0.199 | 0.065 | 0.059 log2 fold change | 0.015 log2 fold change | 0.023 log2 fold change | 0.007 log2 fold change | 0.143 log2 fold change | 0.116 log2 fold change | −0.012 log2 fold change | −0.046 log2 fold change |  |  |  |  | 0.143 log2 fold change | 0.118 log2 fold change | −0.007 log2 fold change | 0.118 log2 fold change
O=C(O)/C=C/c1ccc(Cn2ccnc2)cc1 [Ozagrel HCl] | 1.756 | 0.000 | 0.308 | −0.061 | 0.202 log2 fold change | 0.000 log2 fold change | 0.035 log2 fold change | −0.007 log2 fold change | 0.119 log2 fold change | 0.073 log2 fold change | 0.135 log2 fold change | 0.061 log2 fold change |  |  |  |  | 0.049 log2 fold change | 0.133 log2 fold change | 0.183 log2 fold change | 0.229 log2 fold change
O=C(O)/C=C/c1ccc(Cn2ccnc2)cc1 [Ozagrel] | 0.645 | 0.381 | 0.698 | −0.068 | 0.074 log2 fold change | 0.044 log2 fold change | 0.080 log2 fold change | −0.008 log2 fold change | 0.145 log2 fold change | 0.096 log2 fold change | 0.104 log2 fold change | 0.011 log2 fold change |  |  |  |  | 0.055 log2 fold change | 0.224 log2 fold change | −0.063 log2 fold change | 0.113 log2 fold change
CC(=O)c1cc([N+](=O)[O-])c(Sc2ccc(F)cc2F)s1 [P22077] | 0.338 | −0.041 | 0.248 | −0.487 | 0.039 log2 fold change | −0.005 log2 fold change | 0.028 log2 fold change | −0.056 log2 fold change | −0.182 log2 fold change | 0.065 log2 fold change | −0.007 log2 fold change | −0.063 log2 fold change | −0.516 | 0.117 | −0.320 | −0.311 | −0.216 log2 fold change | 0.049 log2 fold change | −0.134 log2 fold change | −0.130 log2 fold change
C=CCc1cccc(/C=N/NC(=O)CN2CCN(Cc3ccccc3)CC2)c1O [PAC-1] | 1.365 | 0.457 | 1.094 | 0.596 | 0.157 log2 fold change | 0.053 log2 fold change | 0.126 log2 fold change | 0.068 log2 fold change | 0.128 log2 fold change | 0.059 log2 fold change | −0.006 log2 fold change | 0.092 log2 fold change | 0.228 | 0.270 | −0.576 | 0.004 | 0.095 log2 fold change | 0.113 log2 fold change | −0.241 log2 fold change | 0.002 log2 fold change
O=C(NOCC1CC1)c1ccc(F)c(F)c1Nc1ccc(I)cc1Cl [PD184352 (CI-1040)] | −0.162 | −0.458 | −1.176 | −1.011 | −0.019 log2 fold change | −0.053 log2 fold change | −0.135 log2 fold change | −0.116 log2 fold change | −0.019 log2 fold change | −0.047 log2 fold change | −0.178 log2 fold change | −0.239 log2 fold change | 0.874 | 0.624 | −0.506 | −1.901 | 0.366 log2 fold change | 0.261 log2 fold change | −0.212 log2 fold change | −0.796 log2 fold change
O=C(NOC[C@H](O)CO)c1ccc(F)c(F)c1Nc1ccc(I)cc1F [PD0325901] | −1.046 | −1.064 | −1.215 | −1.625 | −0.120 log2 fold change | −0.122 log2 fold change | −0.139 log2 fold change | −0.187 log2 fold change | −0.212 log2 fold change | −0.219 log2 fold change | −0.227 log2 fold change | −0.269 log2 fold change |  |  |  |  | −0.502 log2 fold change | −1.155 log2 fold change | −0.867 log2 fold change | −0.963 log2 fold change
O=C(Nc1cccnc1)N1CCC(Cc2cccc(Oc3ccc(C(F)(F)F)cn3)c2)CC1 [PF-3845] | 0.532 | −0.668 | −0.131 | −1.137 | 0.061 log2 fold change | −0.077 log2 fold change | −0.015 log2 fold change | −0.131 log2 fold change | 0.027 log2 fold change | −0.061 log2 fold change | −0.032 log2 fold change | −0.195 log2 fold change | −0.112 | 0.125 | −0.246 | −0.684 | −0.047 log2 fold change | 0.052 log2 fold change | −0.103 log2 fold change | −0.286 log2 fold change
CN(c1ncccc1CNc1nc(Nc2ccc3c(c2)CC(=O)N3)ncc1C(F)(F)F)S(C)(=O)=O [PF-562271] | −0.589 | −1.325 | −2.034 | −2.184 | −0.068 log2 fold change | −0.152 log2 fold change | −0.234 log2 fold change | −0.251 log2 fold change | −0.088 log2 fold change | −0.214 log2 fold change | −0.332 log2 fold change | −0.414 log2 fold change | −0.273 | −0.518 | −1.311 | −2.266 | −0.114 log2 fold change | −0.217 log2 fold change | −0.549 log2 fold change | −0.949 log2 fold change
